In patent publication US8017316B2, “Methods and compositions for the identification of insect repellent compounds” (Duke University, priority 2007, dated 2011):

Tests used:
wild-type Canton S flies = experiment: Avoidance Evaluation Chamber assay, wild type flies; assay type: in vivo, Drosophila melanogaster; settings: for avoidance without the third antennal segment: wild type Canton S flies, third antennal segment removed
Procedure: (§1) Avoidance Evaluation Chambers: 3% agar (Fisher Scientific, Pittsburgh, Pa., United States of America) and 3% sucrose (Fisher Scientific) was dissolved in distilled H2O. 0.2% (1:500, or 20 mM) N,N-diethyl-3-methylbenzamide (DEET) or 0.01% (1:10000, or 1 mM) allyl-isothiocyanate (AITC) was added and mixed into the agar/sucrose solution immediately before 22 milliliters of solution was poured into each 60 diameter×15 mm HBD Falcon Standard Tissue Culture Dish. The agar was allowed for harden for approximately 1 hour. Using a template below each dish, the agar was then split along the midline with a clean razor blade and half of each plate was excised and placed onto a clean absorbent towel. In order to assess preference, the empty half of each plate was then replaced with solidified 3% agar and 3% sucrose without the addition of DEET or AITC. Care was taken to not contaminate surfaces of toxin and toxin-free agar during this switch.
(§2) Olfactory Desensitization: To prevent most odorant detection, the third antennal segment of each antennae was removed from flies under CO2 anesthesia 24 hours before avoidance trials. Removal of both aristae, but not any part of the antennae, was used as a sham to control for non-specific effects that may have resulted from the surgical procedure.
(§3) Trial Recording: Testing areas (e.g., plates), each containing toxin-containing and toxin-free halves, were placed on a fluorescent-bulb containing light box and arranged so that all fit within the viewfinder of a digital video camera (SONY Handycam; see FIG. 1). Multiple flies to be used on each plate of the trial were sorted under CO2 anesthesia 24 hours before the experiment into glass vials containing fly food. During the experiment, the flies were transferred onto the agar plates by gentle tapping after vials were cooled horizontally on ice. The lids were replaced on the agar plates after fly transfer and animals were allowed a 5-minute acclimation time prior to the start of each trial. The video camera began recording after this acclimation time and ran for 60 minutes. External noise and odors were avoided throughout the trial.
Data Analysis—Avoidance Behavior: Video was downloaded from the digital video camera to a computer using Image Video Mixer (Sony Electronics Inc.) and saved as an MPEG2 file. The movie was then converted to and saved as an image stack at the rate of 1-3 images/second through Image Video Machine (DanDans Digital Media, Boston, Mass., United States of America). Image stacks for each trial were then analyzed at 10 or 15-minute intervals. Each interval was imported and converted to grayscale into ImageJ (Rasband, ImageJ, U.S. National Institutes of Health, Bethesda, Md., United States of America) as a stack and thresholded (Image→Threshold) so that only flies were visible. Care was taken to make sure only flies were visible in each slice since fluorescence in the light box may be of different brightness in each image. The Z-stack Standard Deviation function of ImageJ (Image→Stack→Z-stack→Standard Deviation) was used to visualize the position of all flies throughout each time interval. […] To quantify this amount of time each space was occupied, the “mean gray value” for each side was calculated using the Analyze Measurements menu of ImageJ. […]
Alternatively, the threshold intensity of a single frame in NIH ImageJ was determined automatically; this function highlighted only the flies against an otherwise white background. […]

painless mutant flies = experiment: Avoidance Evaluation Chamber assay, painless mutant flies; assay type: in vivo, Drosophila melanogaster
Procedure: (§4) Drosophila Stocks. All fly stocks were maintained on conventional cornmeal-agar-molasses medium under a 12 hour light/12 hour dark cycle at 22° C. Fly strains used were the wild-type Canton-S, the painless mutant pain1 (EP(2)2451), the dTRPA1 mutant (dTRPA1^23-5939/Df(3L)ED4415), the painless− dTRPA1 double mutant pain1; dTRPA1^23-5939, the Or83b mutant W;ΔOr83b (provided by Dr. Hubert Amrein, Duke University, Durham, N.C., United States of America), and the Or83b-painless double mutant pain1; W;ΔOr83b.
as §1, §2, §3
Data Analysis—Avoidance Behavior: Video was downloaded from the digital video camera to a computer using Image Video Mixer (Sony Electronics Inc.) and saved as an MPEG2 file. The movie was then converted to and saved as an image stack at the rate of 1-3 images/second through Image Video Machine (DanDans Digital Media, Boston, Mass., United States of America). Image stacks for each trial were then analyzed at 10 or 15-minute intervals. Each interval was imported and converted to grayscale into ImageJ (Rasband, ImageJ, U.S. National Institutes of Health, Bethesda, Md., United States of America) as a stack and thresholded (Image→Threshold) so that only flies were visible. Care was taken to make sure only flies were visible in each slice since fluorescence in the light box may be of different brightness in each image. The Z-stack Standard Deviation function of ImageJ (Image→Stack→Z-stack→Standard Deviation) was used to visualize the position of all flies throughout each time interval. This inverts and stacks pixels (flies) from each stack image so that the most occupied areas are standardized to be the brightest, and the least occupied areas remain dark. To quantify this amount of time each space was occupied, the “mean gray value” for each side was calculated using the Analyze Measurements menu of ImageJ. […]

dTRPA1 mutant flies = experiment: Avoidance Evaluation Chamber assay, dTRPA1 mutant flies; assay type: in vivo, Drosophila melanogaster
Procedure: as §4
(§5) Avoidance Evaluation Chambers: 3% agar (Fisher Scientific, Pittsburgh, Pa., United States of America) and 3% sucrose (Fisher Scientific) was dissolved in distilled H2O. […]
(§6) Data Analysis—Avoidance Behavior: Video was downloaded from the digital video camera to a computer using Image Video Mixer (Sony Electronics Inc.) and saved as an MPEG2 file. […] Image stacks for each trial were then analyzed at 10 or 15-minute intervals. […] Care was taken to make sure only flies were visible in each slice since fluorescence in the light box may be of different brightness in each image. […] To quantify this amount of time each space was occupied, the “mean gray value” for each side was calculated using the Analyze Measurements menu of ImageJ. […]

Or83b mutants = experiment: Avoidance Evaluation Chamber assay, Or83b mutant flies; assay type: in vivo, Drosophila melanogaster; settings: olfaction-deficient Or83b mutants
Procedure: as §4, §5, §6

Drosophila painless = molecular target: T1, Drosophila painless (Drosophila melanogaster, UniProt Q9W0Y6); experiment: Calcium imaging of S2R+ cells transfected with painless; assay type: cell-based; settings: 0.5% DEET, six regions of interest
T1 construct: expressed in transfected cells; host or cells: Drosophila S2R+ cells
T1 sequence (Q9W0Y6 1-913): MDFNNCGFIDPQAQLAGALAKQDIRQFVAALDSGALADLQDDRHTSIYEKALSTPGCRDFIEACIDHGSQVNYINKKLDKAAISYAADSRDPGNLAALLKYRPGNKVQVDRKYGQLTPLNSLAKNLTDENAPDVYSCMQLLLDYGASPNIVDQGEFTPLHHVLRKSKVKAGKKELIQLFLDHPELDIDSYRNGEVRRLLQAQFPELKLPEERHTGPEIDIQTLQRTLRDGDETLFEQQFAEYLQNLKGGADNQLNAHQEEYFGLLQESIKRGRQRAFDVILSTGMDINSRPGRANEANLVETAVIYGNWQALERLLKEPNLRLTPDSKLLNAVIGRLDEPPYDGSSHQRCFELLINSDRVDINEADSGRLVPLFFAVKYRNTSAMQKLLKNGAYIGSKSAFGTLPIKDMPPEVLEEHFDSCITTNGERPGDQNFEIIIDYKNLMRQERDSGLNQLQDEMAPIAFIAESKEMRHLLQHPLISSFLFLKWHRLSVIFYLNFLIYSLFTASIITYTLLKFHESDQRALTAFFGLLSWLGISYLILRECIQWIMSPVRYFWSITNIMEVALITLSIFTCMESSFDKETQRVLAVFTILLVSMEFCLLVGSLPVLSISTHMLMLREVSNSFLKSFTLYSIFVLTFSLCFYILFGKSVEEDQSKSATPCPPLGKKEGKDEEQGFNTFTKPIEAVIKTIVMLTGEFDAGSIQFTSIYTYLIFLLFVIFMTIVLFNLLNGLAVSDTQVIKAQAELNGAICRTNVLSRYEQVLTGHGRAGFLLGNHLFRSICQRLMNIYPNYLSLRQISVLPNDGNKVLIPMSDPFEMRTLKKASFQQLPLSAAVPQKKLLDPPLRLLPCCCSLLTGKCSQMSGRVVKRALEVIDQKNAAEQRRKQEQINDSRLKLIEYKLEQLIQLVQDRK
Procedure: Calcium Phosphate Transfection of Drosophila S2R+ Cells: Drosophila S2R+ cells were maintained at room temperature, in ambient atmosphere, in Schneider's Drosophila medium modified with L-glutamine plus 10% heat-inactivated fetal bovine serum. On the day before DNA transfection, cells were plated at a density of 1.2×10^5 cells per cm^2 growth area. DNA to be transfected was added to 250 mM CaCl2 (a volume equal to 1/20th of the volume of the medium in the dish of cells to be transfected) then this mixture was added dropwise to the same volume of 280 mM NaCl/1.5 mM/Na2HPO4/50 mM HEPES, pH 7.08 (2×HEPES buffered saline) while bubbling air gently through the liquid to mix. Precipitate was allowed to form at room temperature for 40 minutes. Immediately before introducing the precipitate, all growth medium was removed form the cells and fresh growth medium was added. Precipitate was added dropwise to the cells, and the dish was gently swirled. 18-24 hour later all liquid on the dish was withdrawn and was replaced with fresh growth medium. Expression was examined on the third day.
For the DEET experiments, 2 ml of culture medium containing 5.75×10^5 cells/ml was placed onto #1.5 25 mm diameter round glass cover slips placed in 6-well multiwell dishes. […]

Drosophila flies = experiment: Evaluation of activity level (speed of flies); assay type: in vivo, Drosophila melanogaster
Procedure: Evaluation of Activity Level—Speed of Flies: Video of trials were downloaded and converted to image stacks and thresholded as described above. The ImageJ plug-in “Multitracker” was used to analyze the paths taken by each fly. The total distance traveled by all flies on each plate was calculated using the Multitracker plug-in, and this distance was divided by the time interval (in minutes) to gauge the average speed of flies on each plate in path lengths/minute.

[1] = tested on: non-transfected S2R+ cells; experiment: Calcium imaging of non-transfected S2R+ cells; assay type: cell-based, Drosophila; settings: 0.5% DEET, seven regions of interest
Procedure: Calcium Imaging for S2R+ cells: the following protocol was followed:
100 μl of the following Fluo4+Fura-Red solution was added per well:
Added 200 μl of fly saline.
The ligand solution was added (with or without Ca++ fly saline).
Control cells were S2R+ cells mock-transfected (no DNA was introduced in the co-precipitation buffers).
After removal of the cell medium from the transfected cells of EXAMPLE 8, 100 μl of FLUO-4+ FURA-Red solution was added to well. This solution included 0.5 μl FLUO-4 stock, 0.5 μl FURA-Red stock, 0.5 μl Pluronic stock and 100 μl Stop solution. The cells were incubate in this solution at room temperature for 45 minutes. The saline was removed and 200 μl of fly saline was added. In Ca++ free conditions, the cells were washed with Ca++ free fly saline supplemented with 5 mM EGTA three times, and then 200 μl of Ca++ free, 5 mM EGTA fly saline was added. The ligand solution was then added with or without Ca++ fly saline.
The loaded cells were imaged by confocal microscopy using 488 nm excitation and Long Pass 650 nm and Band Pass 500-525 nm filters.

C=CCN=C=S [AITC, allyl-isothiocyanate]
avoidance without the third antennal segment (wild-type Canton S flies): able to avoid
preference in AITC avoidance test, males (painless mutant flies; painless-/- males, 1:10,000 dilution): slight preference for the non-AITC side
AITC detection / avoidance (painless mutant flies; painless-/- mutants, 1:10,000 dilution, compared to wild type Canton S): deficient in AITC detection
avoidance of AITC over time (dTRPA1 mutant flies; 1:10,000 AITC): avoided the toxin for the first 30 minutes, but afterwards showed no preference for either side of the plate
avoidance (Or83b mutants): did not show the same avoidance of AITC

CCN(CC)C(=O)c1cccc(C)c1 [DEET, N,N-diethyl-meta-toluamide]
calcium response (FLUO-4 and FURA-RED AM channels) (Drosophila painless): strong calcium increases
time to begin avoiding DEET (wild-type Canton S flies; Canton S flies without antennae): almost immediately
avoidance without the third antennal segment (wild-type Canton S flies): able to avoid
avoidance of DEET in first fifteen minutes after exposure (wild-type Canton S flies; wild type Canton-S flies): clearly avoided DEET
lowest concentration in agar consistently avoided (wild-type Canton S flies; wild-type Canton S flies, with and without the presence of sugar): 0.2%
avoidance of DEET in first 15 minutes (painless mutant flies; P-pain-rescue, pain1 transgenic flies (genomic painless rescue construct), females and males): some avoidance of DEET
avoidance of DEET in first fifteen minutes after exposure (painless mutant flies; pain1/pain2 females and males): failed to avoid DEET
avoidance of DEET in first fifteen minutes after exposure (painless mutant flies; pain1 females and males): failed to avoid DEET
time to avoid DEET, females relative to males (painless mutant flies; painless females vs painless males): twice as long
avoidance of DEET, females (painless mutant flies; painless-/- females): barely avoiding at the last 65 min time point
time to begin avoiding DEET (painless mutant flies; painless-/- males): about 30 minutes
avoidance of DEET without third antennal segments (painless mutant flies; painless-/- males and females with surgically removed third antennal segments): no avoidance of DEET
avoidance of DEET in first fifteen minutes of the trial (painless mutant flies; painless-Gal4 females and males): failed to avoid DEET
activity level (path lengths/min) in the presence of DEET (Drosophila flies; Canton S flies without the third antennal segment): significantly less active
activity level in the presence of DEET (Drosophila flies; Or83b flies compared to Canton S, TrpA1 and painless mutant counterparts): much less active
activity level (path lengths/min) in the presence of DEET (Drosophila flies; wild type Canton S flies with intact third-antennal segments): increased their activity level
exposure time until consistent avoidance of DEET (dTRPA1 mutant flies; 0.2% concentration): less than 15 minutes
avoidance (Or83b mutants): able to avoid DEET
calcium response (FLUO-4 and FURA-RED AM channels) [1]: strong calcium increases
